From ChEMBL document CHEMBL4177587, “SIRT6 inhibitors with salicylate-like structure show immunosuppressive and chemosensitizing effects” (Bioorg Med Chem, 2017)
Values after ≈ are worked out from the molar mass of the structure shown. Active and inactive are the calls of the source. The rule behind the calls is not given here.

Columns and labels:
[1] = molecular target: T1, NAD-dependent protein deacylase sirtuin-6 (Homo sapiens, UniProt Q8N6T7); assay: Inhibition of human recombinant SIRT6 assessed as reduction in NAD+-dependent deacetylase activity at 200 uM using Arg-His-Lys-Lys(epsilon-acetyl)-AMC substrate and NAD+ by fluorescence based assay
T1 sequence (Q8N6T7 whole entry): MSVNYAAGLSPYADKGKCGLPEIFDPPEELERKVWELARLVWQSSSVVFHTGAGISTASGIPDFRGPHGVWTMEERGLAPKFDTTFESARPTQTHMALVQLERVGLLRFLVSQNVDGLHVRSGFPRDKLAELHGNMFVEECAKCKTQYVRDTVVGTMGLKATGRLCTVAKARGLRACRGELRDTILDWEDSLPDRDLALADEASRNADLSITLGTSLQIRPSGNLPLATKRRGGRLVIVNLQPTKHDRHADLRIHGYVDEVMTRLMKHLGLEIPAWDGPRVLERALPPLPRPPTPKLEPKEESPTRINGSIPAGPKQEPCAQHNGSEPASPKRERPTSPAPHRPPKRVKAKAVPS

[2] = molecular target: T2, NAD-dependent protein deacetylase sirtuin-1 (Homo sapiens, UniProt Q96EB6); assay: Inhibition of human recombinant SIRT1 assessed as reduction in NAD+-dependent deacetylase activity using Arg-His-Lys-Lys(epsilon-acetyl)-AMC substrate and NAD+ by fluorescence based assay
T2 sequence (Q96EB6 whole entry): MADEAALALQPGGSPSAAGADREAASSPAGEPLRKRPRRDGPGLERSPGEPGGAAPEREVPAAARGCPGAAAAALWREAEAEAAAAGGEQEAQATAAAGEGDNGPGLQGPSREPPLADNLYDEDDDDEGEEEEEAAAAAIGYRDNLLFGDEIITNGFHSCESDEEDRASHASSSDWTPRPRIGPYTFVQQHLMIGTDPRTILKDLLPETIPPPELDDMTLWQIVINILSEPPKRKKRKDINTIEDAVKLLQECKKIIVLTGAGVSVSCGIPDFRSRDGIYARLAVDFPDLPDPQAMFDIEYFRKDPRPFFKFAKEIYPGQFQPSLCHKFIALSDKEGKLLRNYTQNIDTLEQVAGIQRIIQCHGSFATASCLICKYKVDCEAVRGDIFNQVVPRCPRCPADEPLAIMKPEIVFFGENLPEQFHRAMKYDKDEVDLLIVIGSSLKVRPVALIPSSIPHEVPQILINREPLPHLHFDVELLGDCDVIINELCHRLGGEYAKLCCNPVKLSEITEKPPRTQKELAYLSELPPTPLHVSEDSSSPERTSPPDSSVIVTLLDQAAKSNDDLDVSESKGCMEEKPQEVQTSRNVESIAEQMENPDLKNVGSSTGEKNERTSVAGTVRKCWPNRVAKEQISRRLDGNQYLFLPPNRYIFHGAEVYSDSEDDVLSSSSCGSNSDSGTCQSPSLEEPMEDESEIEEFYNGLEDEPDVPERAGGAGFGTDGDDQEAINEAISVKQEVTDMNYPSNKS

[3] = molecular target: T3, NAD-dependent protein deacetylase sirtuin-2 (Homo sapiens, UniProt Q8IXJ6); assay: Inhibition of human recombinant SIRT2 assessed as reduction in NAD+-dependent deacetylase activity using Arg-His-Lys-Lys(epsilon-acetyl)-AMC substrate and NAD+ by fluorescence based assay
T3 sequence (Q8IXJ6 whole entry): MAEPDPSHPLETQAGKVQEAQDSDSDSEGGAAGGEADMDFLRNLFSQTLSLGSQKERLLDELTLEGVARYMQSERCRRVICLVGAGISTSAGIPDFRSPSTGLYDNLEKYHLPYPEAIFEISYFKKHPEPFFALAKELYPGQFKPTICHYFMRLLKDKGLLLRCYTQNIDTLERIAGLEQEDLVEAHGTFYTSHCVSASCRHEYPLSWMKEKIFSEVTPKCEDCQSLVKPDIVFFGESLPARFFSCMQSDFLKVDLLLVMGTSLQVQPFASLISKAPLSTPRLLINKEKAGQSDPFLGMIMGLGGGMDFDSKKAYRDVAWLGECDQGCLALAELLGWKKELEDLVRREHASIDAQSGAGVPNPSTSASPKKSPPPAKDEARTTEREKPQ

[4] = molecular target: T1, NAD-dependent protein deacylase sirtuin-6; assay: Competitive inhibition of human recombinant SIRT6 assessed as reduction in NAD+-dependent deacetylase activity at 50 uM using fixed Arg-His-Lys-Lys(epsilon-acetyl)-AMC substrate and varying NAD+ by fluorescence based assay based double-reciprocal plot
[5] = molecular target: T1, NAD-dependent protein deacylase sirtuin-6; assay: Competitive inhibition of human recombinant SIRT6 assessed as reduction in NAD+-dependent deacetylase activity at 50 uM using varying Arg-His-Lys-Lys(epsilon-acetyl)-AMC substrate and fixed NAD+ by fluorescence based assay based double-reciprocal plot
[6] = molecular target: T1, NAD-dependent protein deacylase sirtuin-6; assay: Inhibition of SIRT6 in human BxPC3 cells assessed as increase in H3K9 acetylation by immunoblotting relative to untreated control; assay type: cell-based; set-up: concentration or dose not given beside the values
[7] = molecular target: T1, NAD-dependent protein deacylase sirtuin-6; assay: Inhibition of SIRT6 in human BxPC3 cells assessed as increase in 2-NBDG uptake at 100 uM incubated for 18 hrs by glucose uptake assay; assay type: cell-based
[8] = molecular target: T1, NAD-dependent protein deacylase sirtuin-6; assay: Inhibition of SIRT6 in human BxPC3 cells assessed as reduction in TNFalpha production at 100 uM incubated for 18 hrs by ELISA method; assay type: cell-based
[9] = molecular target: T1, NAD-dependent protein deacylase sirtuin-6; assay: Inhibition of SIRT6 in human BxPC3 cells assessed as potentiation of gemcitabine-induced cytotoxicity at 30 uM incubated for 72 hrs by Cell-titer96 aqueous one assay; assay type: cell-based
[10] = test system: BXPC-3; assay: Toxicity in human BxPC3 cells assessed as reduction in cell viability at 30 uM incubated for 72 hrs by Cell-titer96 aqueous one assay; assay type: cell-based; details: bxpc-3, 72 h
[11] = Ionisation constant, pKa of the compound; assay type: physicochemical
[12] = Partition coefficient, log P of the compound; assay type: physicochemical; details: octanol/water
[13] = Intrinsic aqueous solubility in surfactant in 9% Tween 80; assay type: physicochemical; details: 9% Tween 80 surfactant solution
[14] = Intrinsic aqueous solubility in 1.96% Soluplus solution; assay type: physicochemical
[15] = Intrinsic aqueous solubility in 23% Captisol; assay type: physicochemical
[16] = Intrinsic aqueous solubility in PBS at pH 7.4; assay type: physicochemical
[17] = Fraction unbound in human plasma at 1 ug/ml by rapid equilibrium dialysis; assay type: ADME, cell-free
[18] = Fraction unbound in human plasma at 10 ug/ml by rapid equilibrium dialysis; assay type: ADME, cell-free
[19] = Fraction unbound in mouse plasma at 1 ug/ml by rapid equilibrium dialysis; assay type: ADME, cell-free
[20] = Fraction unbound in mouse plasma at 10 ug/ml by rapid equilibrium dialysis; assay type: ADME, cell-free
[21] = Stability in mouse plasma assessed as half life at 1 uM at 37 degC measured after 4 hrs; assay type: ADME, cell-free; details: 4 h, 1 µM
[22] = AUC (0 to t) in ICR mouse at 5 mg/kg, ip by LC-MS/MS method; assay type: ADME, organism-based; details: in vivo
[23] = AUC (0 to infinity) in ICR mouse at 5 mg/kg, ip by LC-MS/MS method; assay type: ADME, organism-based; set-up: dose 5 mg/kg, route intraperitoneal, time infinity; details: in vivo
[24] = MRT (0 to infinity) in ICR mouse at 5 mg/kg, ip by LC-MS/MS method; assay type: ADME, organism-based; details: in vivo
[25] = Terminal half life in ICR mouse at 5 mg/kg, ip by LC-MS/MS method; assay type: ADME, organism-based; details: in vivo, read-out: beta t1/2 (converted)
[26] = Tmax in ICR mouse at 5 mg/kg, ip by LC-MS/MS method; assay type: ADME, organism-based; details: in vivo
[27] = Cmax in ICR mouse at 5 mg/kg, ip by LC-MS/MS method; assay type: ADME, organism-based; set-up: dose 5 mg/kg, route intraperitoneal; details: in vivo
[28] = test system: Mus musculus; assay: Toxicity in ICR mouse assessed as induction of abnormalities at 5 mg/kg, ip; assay type: organism-based; details: in vivo
[29] = species on record: Homo sapiens; assay: Selectivity index, ratio of IC50 for human recombinant SIRT1 to IC50 for human recombinant SIRT6
[30] = species on record: Homo sapiens; assay: Selectivity index, ratio of IC50 for human recombinant SIRT2 to IC50 for human recombinant SIRT6

**Q.** With `Cc1c(NC(=O)c2cccc(NC(=O)c3ccco3)c2)cccc1C(=O)O` as the compound, how does the inhibition [1] read?
**A.** Its inhibition is 18%.

**Q.** Which inhibition [1] does the source give for `O=C(O)c1cc(NC(=O)c2cccc(N3C(=O)CCC3=O)c2)cc(C(=O)O)c1` here?
**A.** Its inhibition is 68%.

**Q.** Which inhibition [1] does the source give for `CC(=O)Nc1cccc(NS(=O)(=O)c2cc(C(=O)O)c(O)cc2C)c1` here?
**A.** The inhibition was “inactive”.

**Q.** With `CCC(CC)C(=O)Nc1cccc(C(=O)Nc2cccc(C(=O)O)c2)c1` as the compound, how does the inhibition [1] read?
**A.** Its inhibition is 54%.

**Q.** With `O=C(Nc1ccc(C(=O)O)c(O)c1)c1ccc(N2C(=O)c3ccccc3C2=O)cc1` as the compound, how does the inhibition [1] read?
**A.** Its inhibition is 17%.

**Q.** What does the source list for `O=C(Nc1ccc(O)c(C(=O)O)c1)c1ccc(NC(=O)c2ccco2)cc1`?
**A.** inhibition [1]: 100%; IC50 [2]: 783 µM; IC50 [3]: 453 µM; inhibition [4]: Active; inhibition [5]: Active; fold change (FC) [6]: 1.9; fold change (FC) [7]: 1.4; inhibition [8]: 78%; inhibition [9]: Active; Activity [10]: Non-Toxic; pKa [11]: 2.58; logP [12]: 2.6; solubility [13]: 1700 µg/mL (≈ 4640 µM); solubility [14]: 760 µg/mL (≈ 2070 µM); solubility [15]: 650 µg/mL (≈ 1770 µM); solubility [16]: 1400 µg/mL (≈ 3820 µM); fraction unbound at 1 ug/ml [17]: 0.019; fraction unbound at 10 ug/ml [18]: 0.024; fraction unbound at 1 ug/ml [19]: 0.029; fraction unbound at 10 ug/ml [20]: 0.046; t1/2 [21]: Stable; AUC(0-t) [22]: 2830 ng·h/mL; AUC(0-inf) [23]: 2840 ng·h/mL; MRT inf [24]: 48.6 min; half-life [25]: 91.8 min; Tmax [26]: 10.2 min; Cmax [27]: 3890 ng/mL; Activity [28]: Non-Toxic

**Q.** With `Cc1cc(O)c(C(=O)O)cc1S(=O)(=O)Nc1ccc(NC(=O)NCC2CCCO2)cc1` (configuration not stated) as the compound, how does the inhibition [1] read?
**A.** The inhibition was 17%.

**Q.** With `O=C(Nc1ccc(O)c(C(=O)O)c1)c1cccc(NC(=O)c2ccco2)c1` as the compound, how does the Ratio IC50 [29] read?
**A.** Its Ratio IC50 is 17.7.

**Q.** What about the Ratio IC50 [30] of the same compound?
**A.** The Ratio IC50 was 8.44.

**Q.** What about the fold change (FC) [6] of the same compound?
**A.** The fold change (FC) was 2.1.

**Q.** What about the fold change (FC) [7] of the same compound?
**A.** Its fold change (FC) is 1.3.

**Q.** And the inhibition [8]?
**A.** The inhibition was 52%.

**Q.** For `CC(=O)Nc1ccc(NS(=O)(=O)c2ccc(O)c(C(=O)O)c2)cc1`, which inhibition [1] is on record?
**A.** The inhibition was “inactive”.

**Q.** With `O=C(Cc1cccs1)Nc1cccc(C(=O)Nc2cccc(C(=O)O)c2)c1` as the compound, how does the inhibition [1] read?
**A.** The inhibition was “inactive”.

**Q.** For `O=C(O)c1cccc(NC(=O)c2cccc(NC(=O)c3cccs3)c2)c1`, which inhibition [1] is on record?
**A.** Its inhibition is 39%.
